Measured values from the NIST ThermoML archive (doi:10.1016/j.jct.2013.08.031).

Test: mn = molality of the nth substance listed, in mol/kg
Settings: 74.66 kPa, Liquid, Vibrating tube method

CCCC[N+](CCCC)(C(C)CC)C(C)CC.[Br-] (stereo not given) [N-butyl-N,N-bis(1-methylpropyl)-1-butanaminium bromide] + O
mass density [kg/m3]
Settings | m1 = 0.01181 | m1 = 0.02026 | m1 = 0.03102 | m1 = 0.04017 | m1 = 0.05043 | m1 = 0.0598 | m1 = 0.06968 | m1 = 0.08191 | m1 = 0.09038 | m1 = 0.1036
298.15 K | 997.635 | 998.067 | 998.623 | 999.106 | 999.638 | 1000.14 | 1000.66 | 1001.3 | 1001.76 | 1002.47
303.15 K | 996.234 | 996.663 | 997.215 | 997.699 | 998.223 | 998.719 | 999.241 | 999.878 | 1000.33 | 1001.03
308.15 K | 994.634 | 995.062 | 995.611 | 996.096 | 996.617 | 997.117 | 997.631 | 998.265 | 998.711 | 999.421

CCCC[N+](CCCC)(CC(C)C)CC(C)C.[Br-] [N-butyl-N,N-bis(2-methylpropyl)-1-butanaminium bromide] + O
mass density [kg/m3]
Settings | m1 = 0.01065 | m1 = 0.01998 | m1 = 0.0287 | m1 = 0.03815 | m1 = 0.04991 | m1 = 0.05935 | m1 = 0.06884 | m1 = 0.08078 | m1 = 0.0922 | m1 = 0.1044
298.15 K | 997.571 | 998.046 | 998.493 | 998.971 | 999.575 | 1000.05 | 1000.54 | 1001.16 | 1001.72 | 1002.35
303.15 K | 996.173 | 996.647 | 997.094 | 997.573 | 998.175 | 998.652 | 999.131 | 999.751 | 1000.31 | 1000.94
308.15 K | 994.575 | 995.047 | 995.492 | 995.975 | 996.571 | 997.048 | 997.529 | 998.152 | 998.702 | 999.327

CC(C)C[N+](CC(C)C)(CC(C)C)CC(C)C.[Br-] [tetra-iso-butyl ammonium bromide] + O
mass density [kg/m3]
Settings | m1 = 0.01022 | m1 = 0.02021 | m1 = 0.02983 | m1 = 0.03847 | m1 = 0.04829 | m1 = 0.05621 | m1 = 0.06888 | m1 = 0.07666 | m1 = 0.08623 | m1 = 0.1002
298.15 K | 997.574 | 998.092 | 998.59 | 999.027 | 999.524 | 999.922 | 1000.56 | 1000.96 | 1001.43 | 1002.15
303.15 K | 996.171 | 996.676 | 997.167 | 997.6 | 998.101 | 998.499 | 999.123 | 999.518 | 999.988 | 1000.7
308.15 K | 994.553 | 995.043 | 995.531 | 995.96 | 996.462 | 996.855 | 997.478 | 997.85 | 998.324 | 999.035

CCC(C)[N+](C(C)CC)(C(C)CC)C(C)CC.[Br-] (stereo not given) [tetra-sec-butyl ammonium bromide] + O
mass density [kg/m3]
Settings | m1 = 0.0097 | m1 = 0.01981 | m1 = 0.03014 | m1 = 0.04066 | m1 = 0.04983 | m1 = 0.0598 | m1 = 0.07027 | m1 = 0.07997 | m1 = 0.08984 | m1 = 0.1018
298.15 K | 997.488 | 997.958 | 998.439 | 998.953 | 999.408 | 999.909 | 1000.44 | 1000.95 | 1001.45 | 1002.08
303.15 K | 996.085 | 996.548 | 997.029 | 997.518 | 997.974 | 998.449 | 998.977 | 999.449 | 999.971 | 1000.56
308.15 K | 994.477 | 994.931 | 995.392 | 995.891 | 996.309 | 996.799 | 997.293 | 997.778 | 998.299 | 998.923

CCCC[N+](CCCC)(CCCC)CCCC.[Br-] [tetrabutylammonium bromide] + O
mass density [kg/m3]
Settings | m1 = 0.01143 | m1 = 0.02179 | m1 = 0.02564 | m1 = 0.03767 | m1 = 0.0459 | m1 = 0.05855 | m1 = 0.0711 | m1 = 0.07968 | m1 = 0.09066 | m1 = 0.1003
298.15 K | 997.306 | 997.542 | 997.632 | 997.89 | 998.083 | 998.37 | 998.631 | 998.818 | 999.091 | 999.267
303.15 K | 995.897 | 996.124 | 996.207 | 996.459 | 996.642 | 996.918 | 997.168 | 997.351 | 997.608 | 997.806
308.15 K | 994.271 | 994.493 | 994.567 | 994.819 | 994.986 | 995.247 | 995.487 | 995.662 | 995.912 | 996.121
